Structures can show the parent of a compound that is named as a salt.
How the values were obtained:
human EP1 receptor [1] = biological target: T1, human EP1 receptor (Homo sapiens, UniProt P34995); assay: Test 3: Measurement of IP1 responses by HTRF, HEK-293 cells stably expressing human EP1 receptors incubated o/n, PGE2 10 nM; type: cell-based; design: expressed in transfected cells; conditions: for inhibition at 10 µM: HEK293, read-out: Results of Test 3 (Functional assay), % inh; for Results of Test 3 (Functional assay), % inh: at 10 μM
T1 sequence (P34995 1-402): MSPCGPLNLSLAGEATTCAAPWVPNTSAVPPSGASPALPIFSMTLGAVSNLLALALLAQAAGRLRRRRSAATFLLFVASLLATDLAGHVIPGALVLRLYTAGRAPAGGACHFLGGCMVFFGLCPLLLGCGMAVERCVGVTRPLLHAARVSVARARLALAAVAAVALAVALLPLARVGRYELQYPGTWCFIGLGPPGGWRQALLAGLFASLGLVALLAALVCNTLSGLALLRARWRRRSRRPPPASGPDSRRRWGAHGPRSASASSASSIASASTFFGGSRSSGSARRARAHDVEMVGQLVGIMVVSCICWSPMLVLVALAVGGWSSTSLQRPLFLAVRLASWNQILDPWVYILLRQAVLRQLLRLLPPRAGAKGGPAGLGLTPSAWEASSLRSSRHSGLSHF
Protocol: Test 3: Measurement of IP1 Responses by Homogeneous Time Resolved Fluorescence
IP1 measurements on HEK-293 cells that stably expressed human EP1 receptors were performed by using a system based on Homogeneous Time Resolved Fluorescense (HTRF) (Gabriel et al., 2003). This technology allows the direct measurement of IP1 in living cells. The principle of this assay is based on competition between IP1 produced by cells and IP1-d2 conjugate for the binding with monoclonal anti-IP1-cryptate conjugate. The HTRF IP1 kit from CisBio was used according to the manufacturer's directions. The experimental procedure was performed as stated below.
40,000 cells per well were added to 96-well culture plates in 40 μl of Optimem and incubated o/n at 37° C. Optimem was replaced by 40 μl of stimulation buffer (supplied by the kit) and compounds were then added in 20 μl of stimulation buffer and incubated at 37° C. for 15 minutes followed by 10 μl of PGE2 to a final concentration of 10 nM. After 90 minutes at 37° C., the reaction was stopped lysing the cells with a mixture of 15 μl of cryptate and 15 μl of IP1-d2 prepared in the lysis buffer supplied by the manufacturer. Plates were incubated for an additional hour at room temperature and read at 665 nm/620 nm using an UltraEvolution Plate reader (Tecan).
Antagonist percentage inhibition was calculated relating compounds activity to the 0% inhibition of the wells incubated with 10 nM PGE2 alone and 100% inhibition of the wells incubated with 10 nM PGE2 plus 10 μM of the reference antagonist.

human EP1 receptor [2] = biological target: T1, human EP1 receptor; assay: Test 1: Human EP1 receptor radioligand binding assay ([3H]-PGE2, transfected HEK-293 cell membranes); design: expressed in transfected cells; host or cells: HEK-293 cell membranes; conditions: for inhibition at 10 µM: read-out: Results of Test 1 (Binding assay), % inh; for Results of Test 1 (Binding assay), % inh: at 10 μM
Procedure, shortened: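 Membranes from transfected HEK-293 cells (30 μg protein) incubated with 10 nM [3H]-PGE2 in pH 6.0 MES buffer for 60 min at 25° C., then filtered and counted by scintillation. Percent inhibition set against total binding and 10 μM PGE2 non-specific binding.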

SMILES | inhibition at 10 µM (human EP1 receptor [1]) | inhibition at 10 µM (human EP1 receptor [2]) | Results of Test 3 (Functional assay), % inh (human EP1 receptor [1]) | Results of Test 1 (Binding assay), % inh (human EP1 receptor [2])
CC(C)COc1ccc(Cl)cc1CN1CCOc2c(C(=O)O)cccc21 [Example 196] | > 75% | > 75% | – | –
O=C(O)c1cncc2c1CCCN2Cc1cc(Cl)ccc1OCc1ccc(F)cc1F [Example 227] | > 75% | > 75% | – | –
O=C(O)c1ccnc2c1cnn2Cc1cc(Cl)ccc1OCc1ccc(Cl)cc1F [Example 212, sodium 1-{5-chloro-2-[(4-chloro-2-fluorobenzyl)oxy]benzyl}-1H-pyrazolo[3,4-b]pyridine-4-carboxylate] | > 75% | > 75% | – | –
O=C(O)c1cccc2c1c(CO)cn2Cc1cc(F)ccc1OCc1ccc(Cl)cc1F [Example 146] | > 75% | > 75% | – | –
O=C(O)c1cccc2c1OCCN2Cc1cc(F)ccc1OCc1ccc(F)cc1Cl [Example 121] | > 75% | > 75% | – | –
CC(C)(F)COc1ccc(Cl)cc1CN1CCCc2c(C(=O)O)cccc21 [Example 177] | > 75% | > 75% | – | –
O=C(O)c1cncc2c1CCCN2Cc1cc(F)ccc1OCc1ccc(F)cc1F [Example 243] | > 75% | > 75% | – | –
O=C(O)c1cncc2c1CCCN2Cc1ccccc1OCc1ccc(Cl)cc1F [Example 240] | > 75% | > 75% | – | –
CC(C)(C)COc1ccc(Cl)cc1Cn1ncc2c(C(=O)O)cccc21 [Example 138] | > 75% | > 75% | – | –
Cc1ccc(OCc2ccc(Cl)cc2F)c(CN2CCOc3c(C(=O)O)cccc32)c1 [Example 194] | > 75% | > 75% | – | –
CC(C)COc1ccc(Cl)cc1Cn1cc(CCO)c2c(C(=O)O)cccc21 [Example 157] | > 75% | > 75% | – | –
O=C(O)c1cccc2c1cnn2Cc1cc(Br)ccc1OCc1ccc(Cl)cc1F [Example 136] | > 75% | > 75% | – | –
CC(C)(F)COc1ccc(Cl)cc1Cn1ncc2c(C(=O)O)cccc21 [Example 125] | > 75% | > 75% | – | –
O=C(O)c1cccc2c1cnn2Cc1cc(Cl)ccc1OCc1ccc(Cl)cc1F [Example 124] | > 75% | > 75% | – | –
O=C(O)c1cccc2c1c(CO)cn2Cc1cc(Cl)ccc1OCc1ccc(F)cc1F [Example 142] | > 75% | > 75% | – | –
O=C(O)c1cccc2c1c(CO)cn2Cc1ccccc1OCc1ccc(Cl)cc1F [Example 144] | > 75% | > 75% | – | –
O=C(O)c1cccc2c1OCC(=O)N2Cc1cc(Br)ccc1OCc1ccc(Cl)cc1F [Example 115] | > 75% | > 75% | – | –
COCc1cn(Cc2cc(Cl)ccc2OCc2ccc(Cl)cc2F)c2cccc(C(=O)O)c12 [Example 207, Sodium 1-(5-chloro-2-(4-chloro-2-fluorobenzyloxy)benzyl)-3-(methoxymethyl)-1H-indole-4-carboxylate] | > 75% | > 75% | – | –

SMILES | inhibition at 10 µM (human EP1 receptor [1]) | inhibition at 10 µM (human EP1 receptor [2]) | Results of Test 3 (Functional assay), % inh (human EP1 receptor [1]) | Results of Test 1 (Binding assay), % inh (human EP1 receptor [2])
CC(C)COc1ccc(F)cc1CN1CCOc2c(C(=O)O)cccc21 [Example 195] | > 75% | > 75% | – | –
CC(CF)COc1ccc(Cl)cc1Cn1cc(CO)c2c(C(=O)O)cccc21 (stereo not drawn) [Example 151] | > 75% | > 75% | – | –
O=C(O)c1cccc2c1c(CO)cn2Cc1cc(F)ccc1OCc1ccc(F)cc1F [Example 145] | > 75% | > 75% | – | –
O=C(O)c1cccc2c1c(CO)cn2Cc1cc(Cl)ccc1OCc1ccc(Cl)cc1F [Example 141, sodium 1-(5-chloro-2-((4-chloro-2-fluorobenzyl)oxy)benzyl)-3-(hydroxymethyl)-1H-indole-4-carboxylate] | > 75% | > 75% | – | –
O=C(O)c1cccc2c1cnn2Cc1cc(Cl)ccc1OC1CCC1 [Example 137] | > 75% | > 75% | – | –
O=C([O-])c1ccnc2c1CCN2Cc1cc(Cl)ccc1OCc1ccc(F)cc1.[Na+] [Example 220] | – | – | $ (% inh > 75) | # (% inh > 75)
O=C(O)c1ccnc2c1CCN2Cc1cc(Cl)ccc1OCc1ccc(Cl)cc1F [Example 216, sodium 1-{5-chloro-2-[(4-chloro-2-fluorobenzyl)oxy]benzyl}-2,3-dihydro-1H-pyrrolo[2,3-b]pyridine-4-carboxylate] | > 75% | > 75% | – | –
CC(C)(F)COc1ccc(Cl)cc1CN1CCc2c(C(=O)[O-])ccnc21.[Na+] [Example 221] | – | – | $ (% inh > 75) | # (% inh > 75)
O=C(O)c1cccc2c1CC(=O)N2Cc1cc(Cl)ccc1OCc1ccc(Cl)cc1F [Example 208, sodium 1-(5-chloro-2-(4-chloro-2-fluorobenzyloxy)benzyl)-2-oxoindoline-4-carboxylate] | > 75% | > 75% | – | –
CC(C)COc1ccc(Cl)cc1CN1CCc2c(C(=O)NS(C)(=O)=O)ccnc21 [Example 234, 1-(5-chloro-2-isobutoxybenzyl)-N-(methylsulfonyl)-2,3-dihydro-1H-pyrrolo[2,3-b]pyridine-4-carboxamide sodium salt] | > 75% | > 75% | – | –
O=C(O)c1cccc2c1c(CO)cn2Cc1cc(F)ccc1OC1CCC1 [Example 148] | > 75% | > 75% | – | –
C=C(CF)COc1ccc(Cl)cc1CN1CCCc2c(C(=O)O)cccc21 [Example 182] | > 75% | > 75% | – | –
CC(C)COc1ccc(Cl)cc1CN1CCCc2c(C(=O)O)cccc21 [Example 175] | > 75% | > 75% | – | –
O=C(O)c1cccc2c1CCCN2Cc1cc(Cl)ccc1OC1CCC1 [Example 178] | > 75% | > 75% | – | –
O=C(O)c1cncc2c1CCCN2Cc1cc(Cl)ccc1OCc1ccc(Cl)cc1F [Example 226, Sodium 1-{5-chloro-2-[(4-chloro-2-fluorobenzyl)oxy]benzyl}-1,2,3,4-tetrahydro-1,7-naphthyridine-5-carboxylate] | > 75% | > 75% | – | –
CC(C)(F)COc1ccc(Cl)cc1Cn1cc(CO)c2c(C(=O)O)cccc21 [Example 147] | > 75% | > 75% | – | –
CC(C)COc1ccc(Cl)cc1CN1CCc2c(C(=O)O)cccc21 [Example 169] | > 75% | > 75% | – | –
CC(C)COc1ccc(F)cc1CN1CCc2c(C(=O)O)cccc21 [Example 170] | > 75% | > 75% | – | –

— patent US9518015B2, “EP1 receptor ligands” (LABORATORIOS DEL DR. ESTEVE, S.A., priority 2011, dated 2016)
